For 27 compounds, IC50 results are on record in patent US9573966B2, “Anti-cancer activity of novel bicyclic heterocycles” (Katholieke Universiteit Leuven, K.U.Leuven R&D, priority 2010, dated 2017).

Assay [1] concerns HSB-2 cells. The experiment in a line: Inhibition of HSB-2 leukemic cell line proliferation (WST-1). As to conditions: cytotoxicity on HSB-2 cells, two days incubation, WST-1 read-out. The format is cell-based, human. How it is done:
(§1) HSB2 cell line, a human acute lymphoblastic leukemia (ATCC; CCL-120.1) cell line, was grown in RPMI-1640 medium (Lonza, Belgium) supplemented with 10% fetal calf serum (Hyclone, US) and antibiotics. Exponential growing phase cells were seed in flat bottom 96-well microplates (TTP, Switzerland) at 50000 cells per well in 220 μl of medium with compounds (in different concentrations) and incubated for two days at 37° C., 5% CO2. After incubation, 100 μl of supernatant were removed and 10 μl of WST-1 (Roche, Switzerland) were added. After 2 hour incubation at 37° C., 5% CO2, optical densities were measured at 450 nm. Proliferation is calculated with respect of control points (no compound and treatment with Triton X100 to have maximum and minimum proliferation data). The IC50 was determined from a graph with at least four points, each derived from the mean of at least 2 experiments. […] The results are shown in Table 1 for a number of compounds.
On the technique in general: Tetrazolium dyes change colour on reduction, which living cells bring about.

Assay [2] deals with HL-60 cells. The experiment in a line: Inhibition of HL-60 leukemic cell line proliferation (WST-1). The format is cell-based, human. As to conditions: cytotoxicity on HL-60 cells, two days incubation, WST-1 read-out. How it is done: as §1, with “HL-60 cell” for “HSB2 cell”, “human promyelocytic” for “human acute lymphoblastic”, “(ATCC; CCL-240)” for “(ATCC; CCL-120.1)”, “Table 2” for “Table 1”

A value given as a limit tells only on which side of the number the result lay.

`Nc1nc(N2CCN(CC(=O)Nc3cccnc3)CC2)c2nc(-c3ccc(F)cc3)[nH]c2n1` [Example 412]: the IC50 in assay [1] and in assay [2] was greater than 10 µM in each case.

In the case of `Nc1nc(N2CCN(C(=O)COc3ccc(Cl)cc3)CC2)c2nc(C3CCCCC3)sc2n1` [Example 120, 5-amino-7-[4-(4-chlorophenoxyacetyl)piperazin-1-yl]-2-cyclohexylthiazolo[5,4-d]pyrimidine], the IC50 in assay [1] (Homo sapiens, HSB2, 48 h) was 4.87 µM; in assay [2] (Homo sapiens, 48 h), greater than 10 µM. For `N#Cc1ccc(NC(=O)N2CCN(c3nc(N)nc4sc(-c5cccnc5)nc34)CC2)cc1` [Example 279, 4-(5-amino-2-(pyridin-3-yl)thiazolo[5,4-d]pyrimidin-7-yl)-N-(4-cyanophenyl)piperazine-1-carboxamide], the IC50 in assay [1] (Homo sapiens, HSB2, 48 h) came out at 0.68 µM; in assay [2] (Homo sapiens, 48 h), 0.88 µM. As to `Cc1cccc(NC(=O)N2CCN(c3nc(N)nc4sc(CCc5ccc(F)cc5)nc34)CC2)c1` [Example 133, 5-amino-2-[2-(4-fluorophenyl)ethyl]-7-(4-m-tolylcarbamoylpiperazin-1-yl)-thiazolo[5,4-d]pyrimidine], the 50% inhibitory concentration (IC50) in assay [1] (Homo sapiens, HSB2, 48 h) is 12.3 µM; in assay [2] (Homo sapiens, 48 h) it was greater than 10 µM. Take `CSc1nc2c(N3CCN(C(=O)COc4ccc(Cl)cc4)CC3)nc(N)nc2n1C` [Example 428, 1-(4-(2-amino-9-methyl-8-(methylthio)-9H-purin-6-yl)piperazin-1-yl)-2-(4-chlorophenoxy)ethanone]: the IC50 in assay [1] (Homo sapiens, HSB2, 48 h) is 0.75 µM; in assay [2] (Homo sapiens, 48 h), 1.59 µM.

As to `CCC(c1ccc(F)cc1)c1nc2c(N3CCN(C(=O)COc4ccc(Cl)cc4)CC3)nc(N)nc2s1` (centres unmarked) [Example 150, 5-amino-2-[1-(4-fluorophenyl)propyl]-7-(4-[2-(4-chlorophenoxy)acetyl]piperazin-1-yl)thiazolo[5,4-d]pyrimidine], the IC50 in assay [1] (Homo sapiens, HSB2, 48 h) is greater than 10 µM; in assay [2] (Homo sapiens, 48 h) it was greater than 10 µM.

As for `Nc1nc(N2CCN(C(=O)COc3ccccc3)CC2)c2cc(-c3ccccc3)sc2n1` [Example 332, 1-(4-(2-amino-6-phenylthieno[2,3d]pyrimidin-4-yl)piperazin-1-yl)-2-phenoxyethanone], the IC50 is 5.5 µM in assay [1] and greater than 10 µM in assay [2]. On to `Nc1nc(N2CCN(C(=O)CCc3ccccc3)CC2)c2cc(-c3ccc(F)cc3)sc2n1` [Example 343, 1-(4-(2-amino-6-(4-fluorophenyl)thieno[2,3-d]pyrimidin-4-yl)piperazin-1-yl)-3-phenylpropan-1-one], for which the IC50 in assay [1] (Homo sapiens, HSB2, 48 h) was greater than 10 µM; in assay [2] (Homo sapiens, 48 h), greater than 10 µM. With `Nc1nc(N2CCN(C(=O)COc3ccc(Cl)cc3)CC2)c2nc(-c3ccc(Cl)c(Cl)c3)sc2n1` [Example 116, 5-amino-7-[4-(4-chlorophenoxyacetyl)piperazin-1-yl]-2-(3,4-dichlorophenyl)thiazolo[5,4-d]pyrimidine], the IC50 is 6.01 µM in assay [1] (Homo sapiens, HSB2, 48 h) and 8.59 µM in assay [2] (Homo sapiens, 48 h). For `Nc1nc(N2CCN(C(=O)CCc3ccc(F)cc3)CC2)c2nc(-c3ccc(F)cc3)sc2n1` [Example 236, 1-(4-(5-amino-2-(4-fluorophenyl)thiazolo[5,4-d]pyrimidin-7-yl)piperazin-1-yl)-3-(4-fluorophenyl)propan-1-one], the IC50 came to 5.57 µM in assay [1] (Homo sapiens, HSB2, 48 h) and 8.2 µM in assay [2] (Homo sapiens, 48 h).

For the compound `Cc1cc(Cl)ccc1OCC(=O)N1CCN(c2nc(N)nc3sc(-c4ccc(F)cc4)nc23)CC1` [Example 213, 1-(4-(5-amino-2-(4-fluorophenyl)thiazolo[5,4-d]pyrimidin-7-yl)piperazin-1-yl)-2-(4-chloro-2-methylphenoxy)ethanone], the IC50 in assay [1] (Homo sapiens, HSB2, 48 h) is 5.25 µM; in assay [2] (Homo sapiens, 48 h) it was 6.72 µM.

With `Nc1nc(N2CC[C@@H](NC(=O)c3ccc(Cl)cc3)C2)c2cc(-c3ccc(F)cc3)sc2n1` [Example 341, (R)—N-(1-(2-amino-6-(4-fluorophenyl)thieno[2,3-d]pyrimidin-4-yl)pyrrolidin-3-yl)-4-chlorobenzamide], the IC50 in assay [1] (Homo sapiens, HSB2, 48 h) is greater than 10 µM; in assay [2] (Homo sapiens, 48 h), greater than 10 µM. Regarding `Nc1nc(N2CCN(C(=O)COc3ccccc3)CC2)c2nc(-c3ccc(F)cc3)sc2n1` [Example 130, 5-amino-2-(4-fluorophenyl)-7-(4-(2-phenoxyacetyl)-piperazin-1-yl)-thiazolo[5,4-d]pyrimidine], the IC50 in assay [1] (Homo sapiens, HSB2, 48 h) was found to be 0.57 µM; in assay [2] (Homo sapiens, 48 h), 0.82 µM. The matching figures for `Nc1nc(N2CCN(C(=O)COc3cccc([N+](=O)[O-])c3)CC2)c2nc(-c3ccc(F)cc3)oc2n1` [Example 193, 5-amino-2-(4-fluorophenyl)-7-(4-[2-(3-nitrophenoxy)acetyl]-piperazin-1-yl)-oxazolo[5,4-d]pyrimidine]: greater than 10 µM and greater than 10 µM. For `Cn1c(-c2ccc(F)cc2)nc2c(N3CCN(C(=O)COc4ccc(Cl)cc4)CC3)nc(N)nc21` [Example 430, 1-(4-(2-amino-8-(4-fluorophenyl)-9-methyl-9H-purin-6-yl)piperazin-1-yl)-2-(4-chlorophenoxy)ethanone], in that order: 3.5 µM and 0.99 µM.

For `CCCSc1nc2c(N3CCN(C(=O)COc4ccc(Cl)cc4)CC3)nc(N)nc2[nH]1` [Example 425, 1-(4-(2-amino-8-(propylthio)-9H-purin-6-yl)piperazin-1-yl)-2-(4-chlorophenoxy)ethanone], the IC50 came out at 4.57 µM in assay [1] (Homo sapiens, HSB2, 48 h) and 8.83 µM in assay [2] (Homo sapiens, 48 h). The matching figures for `Cc1cccc(NC(=O)N2CCN(c3nc(N)nc4sc(-c5ccccc5)cc34)CC2)c1` [Example 330, 4-(2-amino-6-phenylthieno[2,3-d]pyrimidin-4-yl)-N-m-tolylpiperazine-1-carboxamide]: 7.61 µM and greater than 10 µM.

In the case of `Nc1nc(N2CCN(C(=O)COc3ccc(Cl)cc3)CC2)c2nc(SC3CCCC3)[nH]c2n1` [Example 429, 1-(4-(2-amino-8-(cyclopentylthio)-9H-purin-6-yl)piperazin-1-yl)-2-(4-chlorophenoxy)ethanone], the IC50 in assay [1] (Homo sapiens, HSB2, 48 h) was 7.87 µM; in assay [2] (Homo sapiens, 48 h), greater than 10 µM. As for `Nc1nc(N2CCN(C(=O)COc3ccc(Cl)cc3)CC2)c2nc(-c3ccc(Br)cc3)[nH]c2n1` [Example 391, 1-(4-(2-amino-8-(4-bromophenyl)-9H-purin-6-yl)piperazin-1-yl)-2-(4-chlorophenoxy)ethanone], the IC50 in assay [1] (Homo sapiens, HSB2, 48 h) is 2.14 µM; in assay [2] (Homo sapiens, 48 h), 3.65 µM.

As for `CCCc1nc2c(N3CCN(C(=O)COc4ccc(Cl)cc4)CC3)nc(N)nc2[nH]1` [Example 397, 1-(4-(2-amino-8-propyl-9H-purin-6-yl)piperazin-1-yl)-2-(4-chlorophenoxy)ethanone], the IC50 in assay [1] (Homo sapiens, HSB2, 48 h) was 4.51 µM; in assay [2] (Homo sapiens, 48 h), 1.26 µM. Take `Nc1nc(N2CCN(c3ccc(Cl)cc3)CC2)c2nc(-c3ccc(F)cc3)[nH]c2n1` [Example 414, 6-(4-(4-chlorophenyl)piperazin-1-yl)-8-(4-fluorophenyl)-9H-purin-2-amine]: the IC50 in assay [1] (Homo sapiens, HSB2, 48 h) is greater than 10 µM; in assay [2] (Homo sapiens, 48 h), greater than 10 µM. `COc1ccccc1NC(=O)N1CCN(c2nc(N)nc3sc(-c4ccc(F)cc4)nc23)CC1` [Example 219, 4-(5-amino-2-(4-fluorophenyl)thiazolo[5,4-d]pyrimidin-7-yl)-N-(2-methoxyphenyl)piperazine-1-carboxamide]: the IC50 is 5.83 µM in assay [1] (Homo sapiens, HSB2, 48 h) and 6.19 µM in assay [2] (Homo sapiens, 48 h). For `CCCCCc1nc2c(N3CCN(C(=O)COc4ccc(Cl)cc4)CC3)nc(N)nc2o1` [Example 188, 5-amino-7-[4-(4-chlorophenoxyacetyl)piperazin-1-yl]-2-pentyloxazolo[5,4-d]pyrimidine], in that order: greater than 10 µM and greater than 10 µM. `Nc1nc(N2CCN(C(=O)COc3cccc([N+](=O)[O-])c3)CC2)c2nc(CCc3ccc(F)cc3)sc2n1` [Example 131, 5-amino-2-[2-(4-fluorophenyl)ethyl]-7-(4-[2-(3-nitrophenoxy)acetyl]piperazin-1-yl)-thiazolo[5,4-d]pyrimidine]: the IC50 in assay [1] (Homo sapiens, HSB2, 48 h) was greater than 10 µM; in assay [2] (Homo sapiens, 48 h), greater than 10 µM.

For the compound `Nc1nc(N2CCN(C(=O)COc3cccc([N+](=O)[O-])c3)CC2)c2nc(-c3ccc(F)cc3)sc2n1` [Example 129, 5-amino-2-(4-fluorophenyl)-7-(4-[2-(3-nitrophenoxy)acetyl]-piperazin-1-yl)-thiazolo[5,4-d]pyrimidine], the IC50 was found to be 4.76 µM in assay [1] (Homo sapiens, HSB2, 48 h) and 9.74 µM in assay [2] (Homo sapiens, 48 h). `COc1ccc(OCC(=O)N2CCN(c3nc(N)nc4sc(-c5ccccc5)nc34)CC2)cc1` [Example 208, 1-(4-(5-amino-2-phenylthiazolo[5,4-d]pyrimidin-7-yl)piperazin-1-yl)-2-(4-methoxyphenoxy)ethanone]: the IC50 was 0.06 µM in assay [1] (Homo sapiens, HSB2, 48 h) and 0.07 µM in assay [2] (Homo sapiens, 48 h). Turning to `Nc1nc(N2CCN(C(=O)COc3ccc(Cl)cc3)CC2)c2nc(-c3ccc(F)cc3)[nH]c2n1` [Example 389, 1-(4-(2-amino-8-(4-fluorophenyl)-9H-purin-6-yl)piperazin-1-yl)-2-(4-chlorophenoxy)ethanone], in assay [2] (Homo sapiens, 48 h), the IC50 was greater than 10 µM.

As a reminder, the IC50 is the concentration at which inhibition is half-maximal.
